Assay results reported in ChEMBL document CHEMBL4804284.

Legend:
Parameters in all cases: scale not given: the % may be the effect or the level left
[1] = system: Epidermal growth factor receptor (Homo sapiens), P00533 [G719S]; assay: Inhibition of DNA-tagged human EGFR G719S assessed as percent of control at 50000 nM by qPCR analysis relative to control
[2] = target: Calcium/calmodulin-dependent protein kinase type II subunit alpha (Homo sapiens) (UniProt Q9UQM7); assay: Inhibition of DNA-tagged human CAMK2A assessed as percent of control at 50000 nM by qPCR analysis relative to control
[3] = target: Cyclin-dependent kinase 4/cyclin D1 (Homo sapiens) (UniProt P11802+P24385); assay: Inhibition of DNA-tagged human CDK4/cyclin D1 assessed as percent of control at 50000 nM by qPCR analysis relative to control; format: protein-complex assay
[4] = system: Receptor-type tyrosine-protein kinase FLT3 (Homo sapiens), P36888 [D835Y]; assay: Inhibition of DNA-tagged human FLT3 D835Y mutant assessed as percent of control at 50000 nM by qPCR analysis relative to control
[5] = system: Mast/stem cell growth factor receptor Kit (Homo sapiens), P10721 [L576P]; assay: Inhibition of DNA-tagged human KIT L576P mutant assessed as percent of control at 50000 nM by qPCR analysis relative to control
[6] = target: Muscle, skeletal receptor tyrosine-protein kinase (Homo sapiens) (UniProt O15146); assay: Inhibition of DNA-tagged human MUSK assessed as percent of control at 50000 nM by qPCR analysis relative to control
[7] = target: Cyclin-dependent kinase 3 (Homo sapiens) (UniProt Q00526); assay: Inhibition of DNA-tagged human CDK3 assessed as percent of control at 50000 nM by qPCR analysis relative to control
[8] = target: Cyclin-dependent kinase 5 (Homo sapiens) (UniProt Q00535); assay: Inhibition of DNA-tagged human CDK5 assessed as percent of control at 50000 nM by qPCR analysis relative to control
[9] = target: Serine/threonine-protein kinase MRCK beta (Homo sapiens) (UniProt Q9Y5S2); assay: Inhibition of DNA-tagged human MRCKB assessed as percent of control at 50000 nM by qPCR analysis relative to control
[10] = target: Ribosomal protein S6 kinase alpha-1 (Homo sapiens) (UniProt Q15418); assay: Inhibition of DNA-tagged human C-terminal RSK1 kinase domain 2 assessed as percent of control at 50000 nM by qPCR analysis relative to control
Ribosomal protein S6 kinase alpha-1 (Homo sapiens), sequence (Q15418 whole entry, the tested form may be a part): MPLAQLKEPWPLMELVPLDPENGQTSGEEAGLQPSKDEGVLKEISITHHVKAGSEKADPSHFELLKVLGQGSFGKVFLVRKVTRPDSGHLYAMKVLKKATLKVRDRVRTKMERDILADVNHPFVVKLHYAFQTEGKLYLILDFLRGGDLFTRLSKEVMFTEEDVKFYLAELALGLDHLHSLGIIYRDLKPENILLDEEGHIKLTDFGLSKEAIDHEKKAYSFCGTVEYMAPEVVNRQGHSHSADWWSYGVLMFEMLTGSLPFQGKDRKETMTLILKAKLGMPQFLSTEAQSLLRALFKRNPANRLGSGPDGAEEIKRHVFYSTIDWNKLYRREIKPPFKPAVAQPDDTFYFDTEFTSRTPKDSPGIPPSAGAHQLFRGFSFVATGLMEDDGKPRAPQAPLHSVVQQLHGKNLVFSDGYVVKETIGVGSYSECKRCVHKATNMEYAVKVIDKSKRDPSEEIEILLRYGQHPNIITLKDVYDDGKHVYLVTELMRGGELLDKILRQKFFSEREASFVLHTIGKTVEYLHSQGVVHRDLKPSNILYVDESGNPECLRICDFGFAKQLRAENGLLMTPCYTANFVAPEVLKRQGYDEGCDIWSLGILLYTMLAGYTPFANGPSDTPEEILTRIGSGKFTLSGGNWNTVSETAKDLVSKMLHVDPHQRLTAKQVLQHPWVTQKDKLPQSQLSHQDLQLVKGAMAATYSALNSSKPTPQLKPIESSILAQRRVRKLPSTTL

[11] = target: Serine/threonine-protein kinase BRSK1 (Homo sapiens) (UniProt Q8TDC3); assay: Inhibition of DNA-tagged human BRSK1 assessed as percent of control at 50000 nM by qPCR analysis relative to control
[12] = target: Tyrosine-protein kinase JAK1 (Homo sapiens) (UniProt P23458); assay: Inhibition of DNA-tagged human JAK1 JH1 catalytic domain assessed as percent of control at 50000 nM by qPCR analysis relative to control
Tyrosine-protein kinase JAK1 (Homo sapiens), sequence (P23458 whole entry, the tested form may be a part): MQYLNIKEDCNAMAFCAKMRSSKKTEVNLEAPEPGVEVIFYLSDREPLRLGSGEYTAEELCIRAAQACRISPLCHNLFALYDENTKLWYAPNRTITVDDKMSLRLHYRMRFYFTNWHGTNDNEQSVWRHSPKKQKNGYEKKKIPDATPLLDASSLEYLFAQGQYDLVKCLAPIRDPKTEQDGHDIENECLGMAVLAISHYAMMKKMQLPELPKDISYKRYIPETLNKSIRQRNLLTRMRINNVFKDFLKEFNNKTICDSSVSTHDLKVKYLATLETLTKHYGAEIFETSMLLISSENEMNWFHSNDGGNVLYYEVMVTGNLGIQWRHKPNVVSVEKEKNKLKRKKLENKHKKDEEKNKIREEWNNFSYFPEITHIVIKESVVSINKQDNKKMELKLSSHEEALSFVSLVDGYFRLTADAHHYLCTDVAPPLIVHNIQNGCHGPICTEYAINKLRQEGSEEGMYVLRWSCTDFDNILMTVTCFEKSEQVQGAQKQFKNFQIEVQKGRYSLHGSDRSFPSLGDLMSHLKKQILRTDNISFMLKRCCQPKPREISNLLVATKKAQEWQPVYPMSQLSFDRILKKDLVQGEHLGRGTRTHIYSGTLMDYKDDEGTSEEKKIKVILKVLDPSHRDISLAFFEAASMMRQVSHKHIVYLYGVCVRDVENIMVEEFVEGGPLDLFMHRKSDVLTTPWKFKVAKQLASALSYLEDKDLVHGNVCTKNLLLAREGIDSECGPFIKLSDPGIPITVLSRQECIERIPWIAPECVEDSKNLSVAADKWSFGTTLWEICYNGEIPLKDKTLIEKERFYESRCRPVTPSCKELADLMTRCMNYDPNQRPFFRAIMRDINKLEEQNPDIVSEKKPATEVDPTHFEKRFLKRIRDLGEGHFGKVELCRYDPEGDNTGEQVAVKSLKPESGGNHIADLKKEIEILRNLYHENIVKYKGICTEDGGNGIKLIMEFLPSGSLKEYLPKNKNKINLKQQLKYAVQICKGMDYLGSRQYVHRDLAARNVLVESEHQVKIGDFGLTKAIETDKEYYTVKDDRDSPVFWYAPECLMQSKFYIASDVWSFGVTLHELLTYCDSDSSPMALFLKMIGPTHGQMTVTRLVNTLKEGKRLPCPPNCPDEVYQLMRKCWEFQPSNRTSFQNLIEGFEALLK

[13] = system: Epidermal growth factor receptor (Homo sapiens), P00533 [UNDEFINED MUTATION]; assay: Inhibition of DNA-tagged human EGFR L747-T751del/Sins double mutant assessed as percent of control at 50000 nM by qPCR analysis relative to control
[14] = target: Mitogen-activated protein kinase kinase kinase 13 (Homo sapiens) (UniProt O43283); assay: Inhibition of DNA-tagged human LZK assessed as percent of control at 50000 nM by qPCR analysis relative to control
[15] = target: Mitogen-activated protein kinase kinase kinase kinase 4 (Homo sapiens) (UniProt O95819); assay: Inhibition of DNA-tagged human MAP4K4 assessed as percent of control at 50000 nM by qPCR analysis relative to control
[16] = target: Transient receptor potential cation channel subfamily M member 6 (Homo sapiens) (UniProt Q9BX84); assay: Inhibition of DNA-tagged human TRPM6 assessed as percent of control at 50000 nM by qPCR analysis relative to control
[17] = target: Serine/threonine-protein kinase PAK 6 (Homo sapiens) (UniProt Q9NQU5); assay: Inhibition of DNA-tagged human PAK6 assessed as percent of control at 50000 nM by qPCR analysis relative to control
[18] = target: Serine/threonine-protein kinase ICK (Homo sapiens) (UniProt Q9UPZ9); assay: Inhibition of DNA-tagged human ICK assessed as percent of control at 50000 nM by qPCR analysis relative to control
Serine/threonine-protein kinase ICK (Homo sapiens), sequence (Q9UPZ9 whole entry): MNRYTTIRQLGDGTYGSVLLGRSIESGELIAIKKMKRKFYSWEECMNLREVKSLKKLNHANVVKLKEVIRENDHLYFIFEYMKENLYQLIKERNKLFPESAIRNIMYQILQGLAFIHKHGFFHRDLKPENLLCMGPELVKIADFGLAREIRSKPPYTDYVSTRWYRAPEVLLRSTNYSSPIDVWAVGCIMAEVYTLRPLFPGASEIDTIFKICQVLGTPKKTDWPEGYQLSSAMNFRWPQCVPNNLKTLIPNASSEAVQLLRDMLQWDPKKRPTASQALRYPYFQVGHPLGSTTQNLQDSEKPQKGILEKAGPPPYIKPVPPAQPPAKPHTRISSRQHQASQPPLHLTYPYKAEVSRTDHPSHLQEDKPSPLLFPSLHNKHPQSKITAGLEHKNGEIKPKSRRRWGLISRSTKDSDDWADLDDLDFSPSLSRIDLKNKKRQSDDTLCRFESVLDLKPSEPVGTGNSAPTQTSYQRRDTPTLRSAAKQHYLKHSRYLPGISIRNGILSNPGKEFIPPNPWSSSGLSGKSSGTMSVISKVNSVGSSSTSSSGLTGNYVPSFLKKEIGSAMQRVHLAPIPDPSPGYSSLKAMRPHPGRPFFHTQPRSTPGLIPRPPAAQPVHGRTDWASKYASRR

[19] = target: Phosphatidylinositol 4-phosphate 5-kinase type-1 gamma (Homo sapiens) (UniProt O60331); assay: Inhibition of DNA-tagged human PIP5K1C assessed as percent of control at 50000 nM by qPCR analysis relative to control
[20] = target: Tyrosine-protein kinase SYK (Homo sapiens) (UniProt P43405); assay: Inhibition of DNA-tagged human SYK assessed as percent of control at 50000 nM by qPCR analysis relative to control
[21] = target: Serine/threonine-protein kinase BRSK2 (Homo sapiens) (UniProt Q8IWQ3); assay: Inhibition of DNA-tagged human BRSK2 assessed as percent of control at 50000 nM by qPCR analysis relative to control
[22] = target: Cyclin-dependent kinase-like 5 (Homo sapiens) (UniProt O76039); assay: Inhibition of DNA-tagged human CDKL5 assessed as percent of control at 50000 nM by qPCR analysis relative to control
Cyclin-dependent kinase-like 5 (Homo sapiens), sequence (O76039 whole entry): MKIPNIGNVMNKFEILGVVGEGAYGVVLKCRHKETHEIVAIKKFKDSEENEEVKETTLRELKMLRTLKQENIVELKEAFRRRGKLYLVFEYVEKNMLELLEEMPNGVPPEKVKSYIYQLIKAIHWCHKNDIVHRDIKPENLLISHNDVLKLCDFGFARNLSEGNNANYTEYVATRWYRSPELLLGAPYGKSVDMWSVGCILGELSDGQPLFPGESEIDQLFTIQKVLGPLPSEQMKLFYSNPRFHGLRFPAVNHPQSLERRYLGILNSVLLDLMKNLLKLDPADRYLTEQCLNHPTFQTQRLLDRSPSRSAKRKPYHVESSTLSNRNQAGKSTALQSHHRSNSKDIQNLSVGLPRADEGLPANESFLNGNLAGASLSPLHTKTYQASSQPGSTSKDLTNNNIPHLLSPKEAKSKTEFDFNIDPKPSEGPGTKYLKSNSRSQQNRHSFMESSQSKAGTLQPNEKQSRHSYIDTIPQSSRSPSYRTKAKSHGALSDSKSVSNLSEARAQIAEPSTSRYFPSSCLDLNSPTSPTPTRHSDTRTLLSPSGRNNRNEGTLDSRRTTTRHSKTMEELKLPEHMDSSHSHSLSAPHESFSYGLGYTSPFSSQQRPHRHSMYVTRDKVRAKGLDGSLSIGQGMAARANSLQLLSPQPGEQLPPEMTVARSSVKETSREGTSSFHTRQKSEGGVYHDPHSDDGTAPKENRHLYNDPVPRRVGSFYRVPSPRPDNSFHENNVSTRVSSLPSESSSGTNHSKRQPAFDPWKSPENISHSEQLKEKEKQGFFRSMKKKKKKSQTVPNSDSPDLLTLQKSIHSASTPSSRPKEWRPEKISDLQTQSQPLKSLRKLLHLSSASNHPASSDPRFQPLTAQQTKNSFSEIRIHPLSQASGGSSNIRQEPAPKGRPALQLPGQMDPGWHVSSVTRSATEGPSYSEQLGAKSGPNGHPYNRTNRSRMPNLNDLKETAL

[23] = target: Serine/threonine-protein kinase tousled-like 2 (Homo sapiens) (UniProt Q86UE8); assay: Inhibition of DNA-tagged human TLK2 assessed as percent of control at 50000 nM by qPCR analysis relative to control
[24] = target: Vascular endothelial growth factor receptor 1 (Homo sapiens) (UniProt P17948); assay: Inhibition of DNA-tagged human FLT1 assessed as percent of control at 50000 nM by qPCR analysis relative to control
[25] = target: Calcium/calmodulin-dependent protein kinase type II subunit gamma (Homo sapiens) (UniProt Q13555); assay: Inhibition of DNA-tagged human CAMK2G assessed as percent of control at 50000 nM by qPCR analysis relative to control
[26] = target: Serine/threonine-protein kinase 36 (Homo sapiens) (UniProt Q9NRP7); assay: Inhibition of DNA-tagged human STK36 assessed as percent of control at 50000 nM by qPCR analysis relative to control
[27] = target: cGMP-dependent protein kinase 2 (Homo sapiens) (UniProt Q13237); assay: Inhibition of DNA-tagged human PRKG2 assessed as percent of control at 50000 nM by qPCR analysis relative to control
[28] = target: Phosphatidylinositol 4,5-bisphosphate 3-kinase catalytic subunit delta isoform (Homo sapiens) (UniProt O00329); assay: Inhibition of DNA-tagged human PIK3CD assessed as percent of control at 50000 nM by qPCR analysis relative to control
[29] = target: Insulin-like growth factor 1 receptor (Homo sapiens) (UniProt P08069); assay: Inhibition of DNA-tagged human IGF1R assessed as percent of control at 50000 nM by qPCR analysis relative to control
Insulin-like growth factor 1 receptor (Homo sapiens), sequence (P08069 31-736 limits assumed): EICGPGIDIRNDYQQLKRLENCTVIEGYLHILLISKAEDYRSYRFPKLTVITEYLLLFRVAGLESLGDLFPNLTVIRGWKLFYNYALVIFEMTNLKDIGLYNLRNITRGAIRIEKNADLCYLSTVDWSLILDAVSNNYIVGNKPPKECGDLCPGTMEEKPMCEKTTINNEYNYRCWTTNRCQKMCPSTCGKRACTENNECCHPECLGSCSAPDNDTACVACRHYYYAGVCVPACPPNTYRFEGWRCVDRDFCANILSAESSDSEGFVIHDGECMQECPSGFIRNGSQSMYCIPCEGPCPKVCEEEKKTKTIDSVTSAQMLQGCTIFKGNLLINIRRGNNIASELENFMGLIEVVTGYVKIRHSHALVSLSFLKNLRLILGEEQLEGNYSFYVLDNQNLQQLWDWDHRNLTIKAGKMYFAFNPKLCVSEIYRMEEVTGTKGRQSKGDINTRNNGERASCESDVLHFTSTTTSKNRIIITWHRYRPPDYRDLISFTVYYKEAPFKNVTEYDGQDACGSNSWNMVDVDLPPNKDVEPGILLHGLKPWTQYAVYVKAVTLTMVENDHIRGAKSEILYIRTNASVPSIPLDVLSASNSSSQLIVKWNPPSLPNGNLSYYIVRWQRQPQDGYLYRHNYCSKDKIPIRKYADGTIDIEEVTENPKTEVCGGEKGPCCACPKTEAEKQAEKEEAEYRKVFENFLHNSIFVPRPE
Insulin-like growth factor 1 receptor (Homo sapiens), sequence (P08069 741-1367 limits assumed): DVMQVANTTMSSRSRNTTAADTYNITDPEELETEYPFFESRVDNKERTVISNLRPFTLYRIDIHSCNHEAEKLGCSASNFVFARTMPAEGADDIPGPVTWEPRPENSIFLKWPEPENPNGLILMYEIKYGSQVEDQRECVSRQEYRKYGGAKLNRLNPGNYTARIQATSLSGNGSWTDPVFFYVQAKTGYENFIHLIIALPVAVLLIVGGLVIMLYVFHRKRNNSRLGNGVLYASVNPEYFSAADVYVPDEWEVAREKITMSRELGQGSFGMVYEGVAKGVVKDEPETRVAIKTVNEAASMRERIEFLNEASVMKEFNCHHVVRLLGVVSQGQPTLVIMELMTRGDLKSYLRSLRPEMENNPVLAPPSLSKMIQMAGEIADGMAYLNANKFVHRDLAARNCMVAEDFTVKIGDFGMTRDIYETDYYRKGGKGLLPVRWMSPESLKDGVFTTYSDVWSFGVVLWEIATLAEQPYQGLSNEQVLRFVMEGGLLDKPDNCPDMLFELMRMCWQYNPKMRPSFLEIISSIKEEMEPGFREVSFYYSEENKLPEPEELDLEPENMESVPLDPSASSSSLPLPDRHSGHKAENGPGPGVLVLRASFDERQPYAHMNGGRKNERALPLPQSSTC

CN1C(=O)/C(=C2/C(=O)Nc3ccccc32)c2ccccc21
Activity [1]: 94%
Activity [2]: 99%
Activity [3]: 81%
Activity [4]: 75%
Activity [5]: 98%
Activity [6]: 86%
Activity [7]: 78%
Activity [8]: 100%
Activity [9]: 83%
Activity [10]: 84%
Activity [11]: 94%
Activity [12]: 94%
Activity [13]: 87%
Activity [14]: 63%
Activity [15]: 100%
Activity [16]: 78%
Activity [17]: 100%
Activity [18]: 92%
Activity [19]: 81%
Activity [20]: 85%
Activity [21]: 100%
Activity [22]: 91%
Activity [23]: 88%
Activity [24]: 93%
Activity [25]: 90%
Activity [26]: 90%
Activity [27]: 94%
Activity [28]: 95%
Activity [29]: 100%
